“And” between values parts separate entries of the source, which are not always exact repeats. Equal entries are not always repeated. Where two headings read alike, the source gives them in different places.
Biological target: T1, GLUT1 (Homo sapiens, UniProt P11166)
T1 sequence (P11166 1-492): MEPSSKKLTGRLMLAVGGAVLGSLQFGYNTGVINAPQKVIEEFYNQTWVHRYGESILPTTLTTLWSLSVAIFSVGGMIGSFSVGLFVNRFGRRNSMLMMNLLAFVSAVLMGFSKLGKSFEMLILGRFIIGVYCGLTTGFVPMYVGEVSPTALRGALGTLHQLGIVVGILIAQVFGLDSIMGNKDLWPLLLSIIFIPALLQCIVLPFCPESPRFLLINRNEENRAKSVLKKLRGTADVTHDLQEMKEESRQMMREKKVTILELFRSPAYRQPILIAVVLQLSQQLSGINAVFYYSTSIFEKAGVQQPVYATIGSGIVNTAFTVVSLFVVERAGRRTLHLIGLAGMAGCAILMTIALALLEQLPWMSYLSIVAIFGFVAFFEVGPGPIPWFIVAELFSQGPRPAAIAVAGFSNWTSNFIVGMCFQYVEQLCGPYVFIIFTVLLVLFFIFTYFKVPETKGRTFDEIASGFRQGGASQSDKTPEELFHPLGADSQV
Type: binding
Settings: for β (cooperativity parameter, second inhibitor molecule) / γ (hetero-cooperativity parameter) / Inhibition (type of modulation of CB binding) / Ki: 50 nM [3H]-CB; for β (cooperativity parameter, second inhibitor molecule) / γ (hetero-cooperativity parameter) / Ki: 4°C; for β (cooperativity parameter, second inhibitor molecule) / γ (hetero-cooperativity parameter): eqn 6; for Inhibition (type of modulation of CB binding): competing ligand 0 to 100 μM; for ΔΔG°: change in ΔG° relative to baseline cytochalasin or forskolin; for β*γ: product; for Kd: rounded values; for ΔG°: calculated as RT ln(1/KI); for Ki: eqn 6, iterative free [I]

[1] = read-out: KL (Table 3, taken from Table 1), forskolins
[2] = read-out: Ki (affinity of unoccupied GLUT1 for ligand)
[3] = read-out: KL (Table 2, taken from Table 1), cytochalasins

Row | SMILES | β (cooperativity parameter, second inhibitor molecule) | γ (hetero-cooperativity parameter) | Inhibition (type of modulation of CB binding) | ΔΔG° | β*γ | Kd [1] | ΔG° | Ki [2] | further results
1 | C=C[C@@]1(C)CC(=O)[C@]2(O)[C@@]3(C)[C@@H](OC(C)=O)CCC(C)(C)[C@@H]3[C@H](OC(C)=O)[C@H](OC(C)=O)[C@@]2(C)O1 [1,6DiAFSK, 1,60diacetyl-forskolin] | 1480 ± 268 | 0.489 ± 0.017 | 2 | 0.67 kcal/mol | 724 | 11 nM | – | – | β (cooperativity parameter, second inhibitor molecule) (listed as 1,6DiA-FSK): 1500; γ (hetero-cooperativity parameter) (listed as 1,6DiA-FSK): 0.49
2 | C=C[C@@]1(C)CC(=O)[C@]2(O)[C@@]3(C)[C@@H](OC(C)=O)CCC(C)(C)[C@@H]3[C@H](O)[C@H](OC(C)=O)[C@@]2(C)O1 [1AFSK, 1-acetyl-forskolin] | 11923 ± 8441 | 0.440 ± 0.008 | 2 | -3.85 kcal/mol | 5246 | 3 nM | -10.80 kcal/mol | 3 ± 2 nM | β (cooperativity parameter, second inhibitor molecule) (listed as 1A-FSK): 11923; γ (hetero-cooperativity parameter) (listed as 1A-FSK): 0.44
3 | C=C[C@@]1(C)CC(=O)[C@]2(O)[C@@]3(C)CCCC(C)(C)[C@@H]3[C@H](O)[C@H](OC(C)=O)[C@@]2(C)O1 [1DOFSK, 1-deoxy-forskolin] | 22179 ± 5104 | 0.438 ± 0.017 | 2 | -4.46 kcal/mol | 9714 | 1 nM | -11.41 kcal/mol | 1 ± 0.7 nM | β (cooperativity parameter, second inhibitor molecule) (listed as 1DO-FSK): 22,179 ± 5,104; β (cooperativity parameter, second inhibitor molecule) (listed as 1DeO-FSK): 22000; γ (hetero-cooperativity parameter) (listed as 1DeO-FSK): 0.44
4 | C=C[C@@]1(C)CC(=O)[C@]2(O)[C@@]3(C)[C@@H](O)CCC(C)(C)[C@@H]3[C@H](OC(C)=O)[C@H](O)[C@@]2(C)O1 [6A7DeAFSK, 6-acetyl, 7-deacetyl-forskolin] | – | – | 5 | – | – | – | – | – | –
5 | C=C[C@@]1(C)CC(=O)[C@]2(O)[C@@]3(C)[C@@H](O)CCC(C)(C)[C@@H]3[C@H](O)[C@H](O)[C@@]2(C)O1 [7DeAFSK, 7-deacetyl-forskolin] | ∞ | 0.450 ± 0.008 | 4 | -4.07 kcal/mol | ∞ | 2 nM | -11.02 kcal/mol | 2 ± 2 nM | γ (hetero-cooperativity parameter) (listed as 7DeA-FSK): 0.45 ± 0.01 and 0.45
6 | C=C[C@@]1(C)CC(=O)[C@]2(O)[C@@]3(C)[C@@H](O)CCC(C)(C)[C@@H]3[C@H](O)[C@H](OC(=O)CF)[C@@]2(C)O1 [7FAFSK, 7-fluoroacetyl-forskolin] | 45.3 ± 5.0 | 0.475 ± 0.010 | 2 | -0.91 kcal/mol | 22 | 630 nM | -7.86 kcal/mol | 629 ± 0.644 nM | β (cooperativity parameter, second inhibitor molecule) (listed as 7FA-FSK): 45; γ (hetero-cooperativity parameter) (listed as 7FA-FSK): 0.48
7 | C=C[C@@]1(C)CC(=O)[C@H]2[C@](C)(O1)[C@@H](OC(C)=O)[C@@H](O)[C@H]1C(C)(C)CC[C@H](O)[C@@]12C [9DOFSK, 9-deoxy-forskolin] | 120.3 ± 12.3 | 0.464 ± 0.016 | 2 | -1.12 kcal/mol | 56 | 430 nM | -8.07 kcal/mol | 430 ± 75 nM | β (cooperativity parameter, second inhibitor molecule) (listed as 9DeO-FSK): 120; γ (hetero-cooperativity parameter) (listed as 9DeO-FSK): 0.46
8 | CC[C@@]1(C)CC(=O)[C@@]2(O)[C@]3(C)[C@H](O)CCC(C)(C)[C@H]3[C@@H](O)[C@@H](OC(C)=O)[C@]2(C)O1 [14.15DiHFSK, 14,15-dihydro-forskolin] | 242.7 ± 140 | 0.571 ± 0.015 | 1 | -2.60 kcal/mol | 139 | 30 nM | -9.55 kcal/mol | 29.1 ± 17 nM | β (cooperativity parameter, second inhibitor molecule) (listed as 14,15DiH-FSK): 243; γ (hetero-cooperativity parameter) (listed as 14,15DiH-FSK): 0.6
9 | C=C1[C@@H](C)[C@H]2[C@H](Cc3ccccc3)NC(=O)[C@]23OC(=O)/C=C/C(=O)CCC[C@@H](C)C/C=C/[C@H]3[C@@H]1O [CCA, Cytochalasin A] | 1.11 ± 0.17 | 0.374 ± 0.052 | 2 | 1.17 kcal/mol | 0.42 | – | -7.72 kcal/mol | 815 ± 96 nM | β (cooperativity parameter, second inhibitor molecule) (listed as CA): 1.11; γ (hetero-cooperativity parameter) (listed as CA): 0.38; Kd [3]: 820 nM
10 | CC(=O)O[C@@H]1/C=C\[C@@](C)(O)C(=O)[C@@H](C)C/C=C\[C@H]2[C@H](O)C(C)=C(C)[C@H]3C(Cc4ccccc4)NC(=O)[C@]132 (stereo partly shown) [CCC, Cytochalasin C] | ∞ | 0.433 ± 0.003 | 4 | 1.53 kcal/mol | ∞ | – | -7.35 kcal/mol | 1590 ± 431 nM | γ (hetero-cooperativity parameter) (listed as CC): 0.43; Kd [3]: 1600 nM
11 | C=C1[C@@H](C)[C@H]2[C@H](Cc3ccccc3)NC(=O)[C@]23[C@H](OC(C)=O)/C=C/[C@@](C)(O)C(=O)[C@@H](C)C/C=C/[C@H]3[C@@H]1O [CCD, Cytochalasin D] | 101 ± 61 | 0.557 ± 0.019 | 3 | 1.65 kcal/mol | 51 | – | -7.23 kcal/mol | – | β (cooperativity parameter, second inhibitor molecule) (listed as CD): 101; γ (hetero-cooperativity parameter) (listed as CD): 0.56; Kd (KL (Table 2, taken from Table 1), cytochalasins): 2000 nM; Ki (Ki (affinity of unoccupied GLUT1 for ligand)): 1970 ± 98 nM
12 | C=C1[C@@H](C)[C@H]2[C@H](Cc3ccccc3)NC(=O)[C@]23[C@H](OC(C)=O)/C=C/[C@](C)(O)C[C@@H](C)C/C=C/[C@H]3[C@@H]1O [CCH, Cytochalasin H] | 249 ± 45 | 0.449 ± 0.019 | 2 | 0.00 kcal/mol | 110 | – | -8.88 kcal/mol | 98 ± 3 nM | β (cooperativity parameter, second inhibitor molecule) (listed as CH): 249; γ (hetero-cooperativity parameter) (listed as CH): 0.45; Kd [3]: 100 nM
13 | C=C1[C@@H](C)[C@H]2[C@H](Cc3ccccc3)NC(=O)[C@]23[C@H](O)/C=C/[C@](C)(O)C[C@@H](C)C/C=C/[C@H]3[C@@H]1O [CCJ, Cytochalasin J] | 6399 ± 347 | 0.635 ± 0.013 | 3 | -1.16 kcal/mol | 4063 | – | -10.04 kcal/mol | 12 ± 1 nM | –
